Reference: paper PMC5421785, “Citrullination only infrequently impacts peptide binding to HLA class II MHC” (PLoS ONE, 2017)
Square brackets hold non-standard residues; d marks the D form. Ends that are not written are not given here. Peptide text beside a SMILES is read from it. Cit = NC(=O)NCCC[C@H](N)C(=O)O

Assays:
Experiment in all cases: HLA class II peptide binding, inhibition of radiolabeled peptide binding to purified MHC; on IC50 DRB1*01:01: competition with radiolabeled peptide (0.1–1 nM); on IC50 DRB1*04:01: competition with radiolabeled peptide (0.1–1 nM)
HLA-DRB1*01:01 = target: T1, HLA-DRB1*01:01 (Homo sapiens, UniProt P01903+P01911, A100R/D57E/F55L/F60I/F76Y/I96L/L162R/M171V/P40L/Q125E/R42F/V115G/Y59C); settings: read-out: IC50 DRB1*01:01; further: competition with radiolabeled peptide (0.1–1 nM)
T1 construct: EBV transformed homozygous cell lines were used as sources of MHC molecules; endogenous in cells; host or cells: EBV transformed homozygous cell lines

HLA-DRB1*04:01 = target: T2, HLA-DRB1*04:01 (Homo sapiens, UniProt P01903+P01911, A100K/A169T/F76Y/I96L/K127E/L162R/M171V/N62H/P40V/Q125Y/R42H/S133A/S149N/S66Y/V115G/V209L/W38E); settings: read-out: IC50 DRB1*04:01; further: competition with radiolabeled peptide (0.1–1 nM)
T2 construct: EBV transformed homozygous cell lines were used as sources of MHC molecules; endogenous in cells; host or cells: EBV transformed homozygous cell lines

DRB1*04:04 = DRB1*04:04 (Homo sapiens, UniProt P01903+P01911, A100R/A169T/F76Y/I96L/K127E/L162R/M171V/N62H/P40V/Q125Y/R42H/S133A/S149N/S66Y/V209L/W38E); settings: SE+, competition with radiolabeled peptide, two-day incubation, three or more independent experiments
DRB1*04:05 = DRB1*04:05 (Homo sapiens, UniProt P01903+P01911, A100R/A169T/D86S/F76Y/I96L/K127E/L162R/M171V/N62H/P40V/Q125Y/R42H/S133A/S149N/S66Y/V115G/V209L/W38E); settings: SE+, competition with radiolabeled peptide, two-day incubation, three or more independent experiments
DRB1*10:01 = DRB1*10:01 (Homo sapiens, UniProt P01903+P01911, A100R/A169T/D57E/F55L/F60V/F69Y/F76Y/I96L/L162R/M171V/P40V/Q260P/Q39E/Q99R/R195Q/R42F/S149N/S66Y/T210M/V115G/V67A/W38E/Y59R/Y61H); settings: SE+, competition with radiolabeled peptide, two-day incubation, three or more independent experiments
DRB1*04:02 = DRB1*04:02 (Homo sapiens, UniProt P01903+P01911, A100E/A169T/F76Y/K127E/L162R/M171V/N62H/P40V/Q125Y/Q99D/R42H/S133A/S149N/S66Y/V209L/W38E); settings: SE-, competition with radiolabeled peptide, two-day incubation, three or more independent experiments
DRB1*11:01 = DRB1*11:01 (Homo sapiens, UniProt P01903+P01911, A100R/A169T/A87E/I96F/K41T/L162R/M171V/P40S/Q125H/Q178H/Q39Y/Q99D/R42S/S66Y/T262R/V115G/W38E); settings: SE-, competition with radiolabeled peptide, two-day incubation, three or more independent experiments
DRB1*12:01 = DRB1*12:01 (Homo sapiens, UniProt P01903+P01911, A100R/A169T/D57E/D86V/F55L/H45Y/K41T/L162R/M171V/P40S/Q125H/Q178H/Q39Y/Q99D/R42G/S66L/T262R/V114A/V67L/W38E/Y59H/Y61H/Y89S); settings: SE-, competition with radiolabeled peptide, two-day incubation, three or more independent experiments
DRB1*13:02 = DRB1*13:02 (Homo sapiens, UniProt P01903+P01911, A100E/A169T/K41T/L162R/M171V/P40S/Q125H/Q178H/Q39Y/Q99D/R42S/S66N/T262R/V115G/W38E/Y61H); settings: SE-, competition with radiolabeled peptide, two-day incubation, three or more independent experiments
DRB1*15:01 = target: T3, DRB1*15:01 (Homo sapiens, UniProt P01903+P01911); settings: SE-, competition with radiolabeled peptide, two-day incubation, three or more independent experiments
T3 construct: EBV transformed homozygous cell lines were used as sources of MHC molecules; endogenous in cells; host or cells: EBV transformed homozygous cell lines

DRB1*16:02 = DRB1*16:02 (Homo sapiens, UniProt P01903+P01911, A100R/F76Y/I96L/Q99D/V115G); settings: SE-, competition with radiolabeled peptide, two-day incubation, three or more independent experiments
DRB1*03:01 = DRB1*03:01 (Homo sapiens, UniProt P01903+P01911, A100K/A102G/A103R/A169T/F55Y/I96L/K41T/L162R/M171V/P40S/Q125H/Q178H/Q39Y/R42S/S66N/T106N/T262R/W38E/Y61H); settings: Other DR, competition with radiolabeled peptide, two-day incubation, three or more independent experiments
DRB1*07:01 = DRB1*07:01 (Homo sapiens, UniProt P01903+P01911, A100R/A102G/A103Q/D57E/D86V/E43K/F76Y/K127E/L162R/M171V/P40G/Q125H/Q99D/R33Q/R42Y/R54Q/S133A/S66F/T210M/V115G/Y107V/Y59L/Y89S); settings: Other DR, competition with radiolabeled peptide, two-day incubation, three or more independent experiments
DRB1*08:02 = DRB1*08:02 (Homo sapiens, UniProt P01903+P01911, A100R/A103L/A169T/F76Y/H45Y/I96F/K41T/L162R/M171V/P40S/Q125H/Q178H/Q39Y/Q99D/R218S/R42G/S66Y/V115G/W38E); settings: Other DR, competition with radiolabeled peptide, two-day incubation, three or more independent experiments
DRB1*09:01 = DRB1*09:01 (Homo sapiens, UniProt P01903+P01911, A100R/A103E/D57H/D86V/F55Y/F60I/F76Y/I96F/K127E/L162R/M171V/P40D/Q125H/Q99R/R33Q/R42F/S133A/S66N/T210M/V115G/W38K/Y107V/Y59G/Y89S); settings: Other DR, competition with radiolabeled peptide, two-day incubation, three or more independent experiments
DRB3*01:01 = target: T4, DRB3*01:01 (Homo sapiens, UniProt P01903+P79483); settings: Other DR, competition with radiolabeled peptide, two-day incubation, three or more independent experiments
T4 construct: EBV transformed homozygous cell lines were used as sources of MHC molecules; endogenous in cells; host or cells: EBV transformed homozygous cell lines

DRB3*02:02 = DRB3*02:02 (Homo sapiens, UniProt P01903+P79483, A212P/D57E/F66Y/L67A/R103Q/R218S/R40L/S89Y/T80R/V86D/Y55F/Y59H); settings: Other DR, competition with radiolabeled peptide, two-day incubation, three or more independent experiments
DRB4*01:01 = target: T5, DRB4*01:01 (Homo sapiens, UniProt P01903+P13762, G164S); settings: Other DR, competition with radiolabeled peptide, two-day incubation, three or more independent experiments
T5 construct: EBV transformed homozygous cell lines were used as sources of MHC molecules; endogenous in cells; host or cells: EBV transformed homozygous cell lines

DRB5*01:01 = target: T6, DRB5*01:01 (Homo sapiens, UniProt P01903+Q30154); settings: Other DR, competition with radiolabeled peptide, two-day incubation, three or more independent experiments
T6 construct: EBV transformed homozygous cell lines were used as sources of MHC molecules; endogenous in cells; host or cells: EBV transformed homozygous cell lines

DPB1*04:01 = target: T7, DPB1*04:01 (Homo sapiens, UniProt P04440+P20036); settings: DP; purified MHC, competition with radiolabeled peptide, two-day incubation, three or more independent experiments
T7 construct: EBV transformed homozygous cell lines were used as sources of MHC molecules; endogenous in cells; host or cells: EBV transformed homozygous cell lines
T7 sequence (P04440 30-258): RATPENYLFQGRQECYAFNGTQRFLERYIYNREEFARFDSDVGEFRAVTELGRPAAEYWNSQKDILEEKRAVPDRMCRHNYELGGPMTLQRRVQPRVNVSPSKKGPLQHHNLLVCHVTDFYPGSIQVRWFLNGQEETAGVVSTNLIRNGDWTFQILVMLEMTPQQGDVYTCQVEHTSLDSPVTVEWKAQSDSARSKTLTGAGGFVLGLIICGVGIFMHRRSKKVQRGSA
T7 sequence (P20036 29-260 partner): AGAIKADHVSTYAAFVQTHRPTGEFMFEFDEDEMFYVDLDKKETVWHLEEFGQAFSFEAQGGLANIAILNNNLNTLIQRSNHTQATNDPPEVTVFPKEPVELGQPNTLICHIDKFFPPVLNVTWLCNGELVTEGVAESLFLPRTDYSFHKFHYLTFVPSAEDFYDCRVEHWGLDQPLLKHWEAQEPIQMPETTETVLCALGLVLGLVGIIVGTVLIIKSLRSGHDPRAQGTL

DQB1*03:01 = DQB1*03:01 (Homo sapiens, UniProt P01909+P01920); settings: DQ, competition with radiolabeled peptide, two-day incubation, three or more independent experiments
Chain of DQB1*03:01 (P01920 33-261, other chains not shown): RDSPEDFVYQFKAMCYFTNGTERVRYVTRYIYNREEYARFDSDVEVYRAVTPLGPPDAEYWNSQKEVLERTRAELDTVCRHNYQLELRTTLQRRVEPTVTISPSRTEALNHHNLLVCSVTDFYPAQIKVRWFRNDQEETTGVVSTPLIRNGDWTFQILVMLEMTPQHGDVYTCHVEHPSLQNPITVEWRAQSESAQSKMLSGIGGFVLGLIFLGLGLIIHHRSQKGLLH

Compound | IC50 (HLA-DRB1*01:01) | IC50 (HLA-DRB1*04:01) | IC50 (DRB1*04:04) | IC50 (DRB1*04:05) | IC50 (DRB1*10:01) | IC50 (DRB1*04:02) | IC50 (DRB1*11:01) | IC50 (DRB1*12:01) | IC50 (DRB1*13:02) | IC50 (DRB1*15:01) | IC50 (DRB1*16:02) | IC50 (DRB1*03:01) | IC50 (DRB1*07:01) | IC50 (DRB1*08:02) | IC50 (DRB1*09:01) | IC50 (DRB3*01:01) | IC50 (DRB3*02:02) | IC50 (DRB4*01:01) | IC50 (DRB5*01:01) | IC50 (DPB1*04:01) | further results
CC[C@H](C)[C@H](NC(=O)[C@H](CCCNC(N)=O)NC(=O)[C@H](CC(N)=O)NC(=O)[C@@H](NC(=O)[C@H](Cc1ccccc1)NC(=O)[C@H](CC(=O)O)NC(=O)[C@H](CCC(N)=O)NC(=O)[C@@H](N)CC(N)=O)[C@@H](C)O)C(=O)N[C@@H](CC(N)=O)C(=O)N[C@@H](CCCCN)C(=O)N[C@@H](CC(C)C)C(=O)N[C@@H](CCCCN)C(=O)N[C@@H](CC(N)=O)C(=O)N[C@@H](CO)C(=O)O [Fibrinogen 78–91 Cit] (H-NQDFTN[Cit]INKLKNS-OH) | 15700 nM | 12900 nM | 2320 nM | 11300 nM | 8480 nM | > 30000 nM | > 30000 nM | 9380 nM | > 30000 nM | > 30000 nM | 15300 nM | > 30000 nM | > 30000 nM | 35700 nM | > 30000 nM | > 30000 nM | > 30000 nM | 12700 nM | 9.2 nM | > 30000 nM | IC50 (DQB1*03:01): > 30000 nM
CC(C)C[C@H](NC(=O)[C@H](CCCNC(=N)N)NC(=O)[C@@H](NC(=O)[C@H](C)NC(=O)[C@@H](N)CO)C(C)C)C(=O)N[C@@H](CCCNC(N)=O)C(=O)N[C@@H](CO)C(=O)N[C@@H](CO)C(=O)N[C@H](C(=O)N1CCC[C@H]1C(=O)NCC(=O)N[C@H](C(=O)N[C@@H](CCCNC(=N)N)C(=O)O)C(C)C)C(C)C [Vimentin 66–78 Cit] (H-SAVRL[Cit]SSVPGVR-OH) | 9.5 nM | 1.8 nM | 9 nM | 54 nM | 35 nM | 14 nM | 8920 nM | 2220 nM | 15000 nM | 5.4 nM | 118 nM | 25900 nM | 7310 nM | 275 nM | 353 nM | > 30000 nM | > 30000 nM | 4 nM | 1360 nM | > 30000 nM | IC50 (DQB1*03:01): 2010 nM
LQYMRADQAAGGLR [Collagen II 1236–1249 WT] | 81 nM | 9.7 nM | 102 nM | 1770 nM | 375 nM | 118 nM | 9860 nM | > 30000 nM | 3920 nM | 1460 nM | 23100 nM | 159 nM | 29600 nM | 1040 nM | 315 nM | 68 nM | 262 nM | 80 nM | 8880 nM | > 30000 nM | IC50 (DQB1*03:01): 12800 nM
NQDFTNRINKLKNS [Fibrinogen 78–91 WT] | > 30000 nM | > 30000 nM | 2050 nM | 12800 nM | 3580 nM | > 30000 nM | 13900 nM | 27800 nM | > 30000 nM | > 30000 nM | 8430 nM | > 30000 nM | > 30000 nM | 457 nM | 11100 nM | > 30000 nM | > 30000 nM | 7700 nM | 23 nM | > 30000 nM | IC50 (DQB1*03:01): > 30000 nM
SAVRLRSSVPGVR [Vimentin 66–78 WT] | 3260 nM | 13100 nM | 206 nM | 3960 nM | 5170 nM | 927 nM | 11800 nM | 15900 nM | 11400 nM | 4.1 nM | 1080 nM | 12200 nM | > 30000 nM | 53 nM | 1410 nM | > 30000 nM | 9090 nM | 2020 nM | 2230 nM | > 30000 nM | IC50 (DQB1*03:01): 2100 nM
VVLLVATEGRVRVNSAYQDK [Aggrecan 84–103 WT] | 155 nM | 713 nM | 565 nM | 183 nM | 643 nM | 501 nM | 520 nM | 1050 nM | 268 nM | 1010 nM | 20500 nM | 530 nM | 3030 nM | 3960 nM | 730 nM | 8460 nM | 245 nM | 955 nM | 16 nM | 26200 nM | IC50 (DQB1*03:01): 229 nM
